# Tests used:
# calmodulin (CaM) = calmodulin (CaM) (Bos taurus, UniProt P62157); experiment: Fluorescence polarization assay, displacement of F-PMCA peptide from CaM; settings: for kinact/KI: read-out: k2/Ki second-order rate constant
# Protocol: Compounds were threefold-diluted in an assay buffer (20 mM Tris Cl pH 7.5, 50 mM NaCl, 1 mM CaCl2, and 0.005% Tween 20), and a complex of 100 nM CaM and 10 nM F-PMCA peptide was added. […] Then the plate was incubated overnight at 4°C, and the next day, final readings were taken after a total of 24 h incubation. The fluorescence anisotropy was calculated and plotted against the logarithm of the compound concentration and fit to the log inhibitor vs. response–variable slope (four parameters) equation in Prism (GraphPad).
# The potency and selectivity of a covalent inhibitor are governed by two parameters, namely, Ki, the dissociation constant of the initial non-covalent complex, and k2, the rate of the subsequent covalent bond-forming reaction as given in the chemical equation
# E and I denote a protein target and its covalent inhibitor, respectively. E ⋅ I is the initial non-covalent complex, and E – I is the final covalent complex. […] This was repeated for several inhibitor concentrations. Then, kobs was plotted against the concentration of the inhibitor, and the data were fit to a hyperbolic equation kobs=k2×[I]/Ki+[I] to obtain Ki and k2. The ratio of k2/Ki represents the second-order rate constant of the reaction of the covalent inhibitor with the target.
# K-RasG12V = K-RasG12V nanoclustering-BRET assay in HEK293-EBNA cells; format: cell-based
# Protocol: (§1) BRET assays were essentially performed as described by others ([Lavoie et al., 2013]; [Bery et al., 2018]). About 100,00–150,000 HEK293-EBNA ([Meissner et al., 2001]) cells were seeded per well of a 12-well plate in 1 ml of DMEM containing 10% FBS and 2 mM L-glutamine and were grown for 24 h. Next day, Rluc8-tagged donor and GFP2-tagged acceptor constructs were transfected into cells using a jetPRIME transfection reagent (cat. no. 114-75, Polyplus). Each well was transfected with about 1 μg of plasmid DNA using 3 μl of the jetPRIME reagent. For BRET donor saturation titration experiments, the concentration of donor plasmid (25 ng) was kept constant, and the concentration of acceptor plasmid was increased from 0 to 500 ng for RasG12V BRET pairs and 0–1,000 ng for K-Ras/CaM BRET pairs. The empty pcDNA3.1(-) plasmid was used to top-up the total DNA load per transfection. After 24 h of transfection, cells were treated with compounds or vehicle control (DMSO 0.2% v/v in a growth medium) at the specified concentration for 24 h or the stipulated time period in case of the time-course experiments. The cells from one well of a 12-well plate were collected, washed, and re-plated in PBS (cat. no. 14190-094, Gibco, Thermo Fisher Scientific) on flat bottom, white 96-well plates (cat. no. 236108, Nunc, Thermo Fisher Scientific) as four technical replicates containing 90 μl of cell suspension per well. Then fluorescence intensity followed by BRET readings were carried out on a Clariostar (BMG Labtech) plate reader at 25°C. The fluorescence intensity (RFU) of GFP2 was measured with excitation at 405 ± 10 nm and emission 515 ± 10 nm; it is proportional to the acceptor concentration [acceptor]. BRET readings were taken well by well by adding 10 μl of 100 μM coelenterazine 400a (cat. no. C-320, GoldBio), the Rluc8 substrate to each well (final concentration of 10 μM) using the injector present in the plate reader. Luminescence emission intensities were simultaneously recorded at 410 ± 40 nm (RLU, proportional to [donor]) and 515 ± 15 nm (BRET signal).
# (§2) The raw BRET ratio was calculated as the BRET signal measured at 515 nm divided by the emission signal measured at 410 nm (RLU). The BRET ratio was obtained by subtracting the raw BRET ratio by a background BRET signal measured for cells expressing only the donor ([Bacart et al., 2008]) as indicated in the formula below:
# (§3) For BRET donor saturation titration experiments, the BRET ratio was plotted against the [acceptor]/[donor] ratio. Technical repeat data points were averaged, and data points from all biological repeats were collected into one graph for subsequent fitting. The BRET ratio vs. relative expression data were fitted using a binding saturation equation in the Prism (GraphPad) software to obtain BRETmax and BRET50 using the equation y=BRETmax×x/BRET50+x , where x is the relative expression and y is the BRET ratio. BRETmax represents the maximum saturation BRET signal and depends on the structural parameters (distance, orientation) of the BRET complex. BRET50 corresponds to the ratio of the acceptor construct over the donor construct required to attain 50% of the maximum BRET signal and is a measure of the effective relative affinity between the interacting BRET pair ([Marullo and Bouvier, 2007]).
# When applying the DSS analysis to nanoclustering-BRET data, we used mevastatin (10 μM) to obtain the asymptote parameter (a) for the maximal inhibition effect, as it prevents the prenylation of Ras proteins, their plasma membrane trafficking, and therefore nanoclustering. Otherwise, normalized BRET ratio data were converted to % inhibition and then subsequently uploaded onto the Breeze site (see text footnote 1).
# HeLa cells = experiment: Centrosome number / multipolar phenotype in synchronized HeLa cells expressing mCherry-CaM; format: cell-based; settings: 2 h; calmidazolium 20 μM, 1 50 μM, with MG132 10 μM
# Protocol: To evaluate the effect of compounds on centrosome numbers during mitosis, HeLa cells were seeded in 6-well plates onto sterile coverslips and cotransfected with 0.5 μg of pmCherry-CaM and 1.5 μg pEGFP-Centrin1 plasmids using 4 μl of jetPRIME. Twenty-four hours after the transfection, cells were synchronized with 60 ng/ml of nocodazole for 16 h. After the removal of nocodazole, the cells were treated with the […] MG132 (10 μM) to block the cells in metaphase and either calmidazolium (20 μM), 1 (50 μM), or DMSO (0.5%) for 2 h. Cells were then fixed with 4% paraformaldehyde in PBS for 10 min at ambient temperature. After washing with PBS-Tween 0.05%, DNA was stained with a 1 μg/ml solution of DAPI diluted in PBS for 10 min. Coverslips were mounted on glass slides using Vectashield, and images were captured on a spinning disk confocal microscope. Images were analyzed with the ImageJ software, and the number of transfected mitotic cells with multipolar and normal bipolar phenotypes was counted (between 35 and 70 cells per test condition). The percentage multipolar vs. bipolar cells was computed to generate the plot using the Prism software.
# K-RasG12V/CaM = target: T1, K-RasG12V/CaM (Homo sapiens, UniProt P0DP23); experiment: Rluc8-K-RasG12V/GFP2-CaM interaction BRET in HEK293-EBNA cells; format: cell-based; settings: for IC50: 24-h exposure, A/D plasmid ratio 9/1, read-out: IC50 of Rluc8-K-RasG12V/GFP2-CaM BRET signal
# T1 construct: expressed in transfected cells; host or cells: HEK293-EBNA
# Protocol: as §1, §2, §3
SMILES,Kd (calmodulin (CaM)),Ki (calmodulin (CaM)),affinity difference between Calmirasone1 and calmidazolium (calmodulin (CaM); Kd 0.87 μM vs […]),"affinity for CaM relative to OphA (calmodulin (CaM); after 24-h incubation, higher affinity than OphA)",kinact/KI (calmodulin (CaM)),"reduction in the K-RasG12V BRET signal (K-RasG12V; 1 at 50 μM, within 10 min of treatment)","higher effectivity than calmidazolium in cell biological experiments (K-RasG12V; Calmirasone1 used at 2.5-fold higher concentration, Figures 3F, 7B)",multipolar phenotype (multiple mCherry-CaM-positive centrosomes) (HeLa cells),IC50 (K-RasG12V/CaM),"time-dependent change of K-RasG12V nanoclustering-BRET signal (K-RasG12V; 2-h treatment timeframe, OphA 10 μM, mevastatin 10 μM)","K-Ras selective reduction of nanoclustering-BRET (K-Ras vs H-Ras) (K-RasG12V; 24 h, calmidazolium 20 μM, OphA 2.5 μM, prostratin 10 μM, mevastatin 10 μM, benzazulenones 20 μM)","effect on Rluc8-K-RasG12V/GFP2-CaM BRET signal, single concentration (K-RasG12V/CaM; calmidazolium 20 μM, prostratin 20 μM, OphA 5 μM)"
CC(C)c1ccc2cc(C(F)(F)F)c(=O)c3c(N4CCCCC4)c(C=O)c(c1)c23 [Compound 1],0.87 µM,52 µM,64 fold,fourfold,2.78 M⁻¹ s⁻¹,38%,> 25 fold,significantly pronounced,31 ± 2 µM,,,
"CC(C)=C[C@H]1C[C@H](C)[C@]2(CC[C@]3(C)C[C@H]4[C@H](C(=O)C[C@@]4(C)O)/C(C=O)=C\C[C@H]32)O1 [OphA, Ophiobolin A, reference compound]",,79 µM,,,3.89 M⁻¹ s⁻¹,,,,12 ± 2 µM,no significant BRET change,1.2 fold,significantly reduced the BRET signal
